Where a SMILES comes first, the peptide text is derived from it. The star is where a group is joined. Decanoyl = CCCCCCCCCC(=O)*; Cbz = O=C(OCc1ccccc1)*; CH2Cl = ClC*
Tests used:
[1] = tested on: TGFalpha release, HEK293T cells; assay: Time course after PMA induction of HEK293T cells overexpressing pro-TGFalpha, with protease inhibitors; format: cell-based, human
Description: Cell culture and cell-based rhomboid cleavage assay. Cells were propagated in DMEM supplemented with 10% fetal calf serum. COS-7 cells were transfected in 35 mm wells with FuGENE 6 (Roche) as described (7). In brief, 250 ng plasmid encoding the substrate (as indicated in the description of the figures), 25 ng for the rhomboid tested, 50 ng for the GRP receptor and empty plasmid to bring the total DNA to 1 μg was used. For protease titration, 2.5 ng to 250 ng plasmid coding RHBDL4 was used. HeLa and HEK293T were transfected with polyethyleneimine (linear, MW 25000; Polysciences) as described (32) using twice the amount of DNA as used with FuGENE. Transfection efficiency was monitored by co-transfection of pEGFP (Invitrogen). Sixteen hours post transfection, medium was replaced with serum-free medium containing 10 μM BB94 (British Biotech) unless otherwise stated. For activation of endogenous rhomboid activity, phorbol 12-myristate 13-acetate (PMA) (1 μM, from Sigma) or bombesin (100 nM, from Sigma) was added to the cell medium. For inhibitor studies, the indicated protease inhibitors (from Calbiochem), diluted from a stock solution in DMSO, were compared with a carrier only. Medium was harvested typically after 24 to 30 hours; for inhibitor studies using 3,4-Dichloroisocoumarin (DCI) a time course with 0 minutes, 30 minutes and 4 hours was performed (FIG. 4C). Cells were solubilized in SDS-sample buffer and analyzed by SDS-PAGE. EndoH (New England Biolabs) and PNGaseF (New England Biolabs) treatment of SDS-solubilized cell extracts was performed according to the manufacturers instructions. Conditioned media were centrifuged for 10 minutes at full speed in a microfuge to remove cell debris, and subsequently proteins in the supernatant were precipitated by adding trichloroacetic acid (TCA) to 10%. The precipitate was recovered by centrifugation, washed with acetone and dissolved in SDS-PAGE sample buffer and analyzed by SDS-PAGE. Alternatively to TCA precipitation, TGFalpha-H8 in conditioned medium was captured by metal-chelate chromatography using Ni-NTA agarose beads (Qiagen) in the presence of 20 mM imidazole at pH 8.0. Subsequently beads were washed with 20 mM Tris-Cl pH 8.0, 50 mM imidazole, eluted with SDS-sample buffer and analyzed by SDS-PAGE and Western blotting (see below). Typically, from a 35 mm tissue culture dish, 10% of cell extracts and 20% of tissue culture supernatant were loaded. To increase the sensitivity, for experiments shown in FIGS. 1C, 3E, 4A and 4C, five times the amount of the media fractions were loaded.
(§1) Western blotting. Proteins were analyzed by 4-20% Tris-Glycine gradient gels (Invitrogen) followed by Western blot analysis using either anti FLAG M2-HRP (1:1000; Sigma), anti HA antibody 16B12 (1:1000; Covance), anti actin antibody ab8227 (1:5000; Abcam) or affinity purified polyclonal rabbit antibody anti RHBDL4 (1:4000; see above). In order to detect the 6 kDa form of TGFalpha, proteins were transferred on PVDF membrane with 0.2 μm pore size (Millipore) and probed with 1:100 anti TGFalpha antibody 134A-2B3 (Oncogene). For the detection of phosphorylated EGFR, PVDF membranes were blocked in 3% BSA in TBS-Tween supplemented with 200 μM NaVO3. Protein was detected with anti phospho-EGFR antibody 9H2 (1:2000, Upstate). […] Bound antibodies were detected by incubation with secondary antibody (Santa Cruz Biotechnology) followed by enhanced chemiluminescence (Amersham Biosciences).

[2] = tested on: pro-TGFalpha shedding; assay: BB94 sensitivity of endogenous pro-TGFalpha shedding and trimming (cell-based cleavage assay)
Description: (§2) Cell culture and cell-based rhomboid cleavage assay. Cells were propagated in DMEM supplemented with 10% fetal calf serum. COS-7 cells were transfected in 35 mm wells with FuGENE 6 (Roche) as described (7). In brief, 250 ng plasmid encoding the substrate (as indicated in the description of the figures), 25 ng for the rhomboid tested, 50 ng for the GRP receptor and empty plasmid to bring the total DNA to 1 μg was used. For protease titration, 2.5 ng to 250 ng plasmid coding RHBDL4 was used. HeLa and HEK293T were transfected with polyethyleneimine (linear, MW 25000; Polysciences) as described (32) using twice the amount of DNA as used with FuGENE. Transfection efficiency was monitored by co-transfection of pEGFP (Invitrogen). Sixteen hours post transfection, medium was replaced with serum-free medium containing 10 μM BB94 (British Biotech) unless otherwise stated. For activation of endogenous rhomboid activity, phorbol 12-myristate 13-acetate (PMA) (1 μM, from Sigma) or bombesin (100 nM, from Sigma) was added to the cell medium. […] Cells were solubilized in SDS-sample buffer and analyzed by SDS-PAGE. […] The precipitate was recovered by centrifugation, washed with acetone and dissolved in SDS-PAGE sample buffer and analyzed by SDS-PAGE. […] Subsequently beads were washed with 20 mM Tris-Cl pH 8.0, 50 mM imidazole, eluted with SDS-sample buffer and analyzed by SDS-PAGE and Western blotting (see below). […]
as §1, with “In order to detect the 6 kDa form of TGFalpha, proteins were transferred on PVDF membrane with 0.2 μm pore size (Millipore) and probed with 1:100 anti TGFalpha antibody 134A-2B3 (Oncogene). For the detection of phosphorylated EGFR, PVDF membranes were blocked in 3% BSA in TBS-Tween supplemented with 200 μM NaVO3.” left out

[3] = tested on: HB-EGF shedding, COS-7 cells; assay: HB-EGF secretion in COS-7 cells overexpressing the bombesin receptor; format: cell-based, green monkey
Description: Cells were propagated in DMEM supplemented with 10% fetal calf serum. COS-7 cells were transfected in 35 mm wells with FuGENE 6 (Roche) as described (7). In brief, 250 ng plasmid encoding the substrate (as indicated in the description of the figures), 25 ng for the rhomboid tested, 50 ng for the GRP receptor and empty plasmid to bring the total DNA to 1 μg was used. […] Transfection efficiency was monitored by co-transfection of pEGFP (Invitrogen). Sixteen hours post transfection, medium was replaced with serum-free medium containing 10 μM BB94 (British Biotech) unless otherwise stated. For activation of endogenous rhomboid activity, phorbol 12-myristate 13-acetate (PMA) (1 μM, from Sigma) or bombesin (100 nM, from Sigma) was added to the cell medium. For inhibitor studies, the indicated protease inhibitors (from Calbiochem), diluted from a stock solution in DMSO, were compared with a carrier only. […] Cells were solubilized in SDS-sample buffer and analyzed by SDS-PAGE. […] Conditioned media were centrifuged for 10 minutes at full speed in a microfuge to remove cell debris, and subsequently proteins in the supernatant were precipitated by adding trichloroacetic acid (TCA) to 10%. The precipitate was recovered by centrifugation, washed with acetone and dissolved in SDS-PAGE sample buffer and analyzed by SDS-PAGE. […]

[4] = biological target: T1, mouse RHBDL4 (Mus musculus, UniProt Q8BHC7); assay: Cell-based rhomboid cleavage assay: pro-TGFalpha cleavage by overexpressed RHBDL4; parameters: expressed in transfected cells; host or cells: COS-7 (also HeLa and HEK293T), pcDNA3.1
T1 sequence (Q8BHC7 1-315): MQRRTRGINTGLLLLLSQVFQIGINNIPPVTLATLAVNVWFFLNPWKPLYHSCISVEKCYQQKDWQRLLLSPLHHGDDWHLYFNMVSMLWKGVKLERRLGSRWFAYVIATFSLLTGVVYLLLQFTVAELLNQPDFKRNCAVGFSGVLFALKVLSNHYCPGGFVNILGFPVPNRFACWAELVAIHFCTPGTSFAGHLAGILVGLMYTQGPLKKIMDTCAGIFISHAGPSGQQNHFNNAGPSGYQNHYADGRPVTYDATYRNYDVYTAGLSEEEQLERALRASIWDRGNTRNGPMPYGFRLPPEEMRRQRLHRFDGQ
Description: as §2, with “(Invitrogen).” for “(Invitrogen). Sixteen hours post transfection, medium was replaced with serum-free medium containing 10 μM BB94 (British Biotech) unless otherwise stated. For activation of endogenous rhomboid activity, phorbol 12-myristate 13-acetate (PMA) (1 μM, from Sigma) or bombesin (100 nM, from Sigma) was added to the cell medium.”
(§3) Western blotting. […] Protein was detected with anti phospho-EGFR antibody 9H2 (1:2000, Upstate). […] Bound antibodies were detected by incubation with secondary antibody (Santa Cruz Biotechnology) followed by enhanced chemiluminescence (Amersham Biosciences).

[5] = tested on: proteasome; assay: Proteasome inhibitor treatment of cells expressing pro-TGFalpha; format: cell-based; details: 5 μM
Description: as §2

[6] = tested on: protein kinase C (PKC); assay: PMA-induced TGFalpha shedding (transactivation); format: cell-based; details: PMA 1 μM
Description: as §2, with “(Invitrogen).” for “(Invitrogen). Sixteen hours post transfection, medium was replaced with serum-free medium containing 10 μM BB94 (British Biotech) unless otherwise stated. For activation of endogenous rhomboid activity, phorbol 12-myristate 13-acetate (PMA) (1 μM, from Sigma) or bombesin (100 nM, from Sigma) was added to the cell medium.”
as §3

[7] = BB94 20 μM, FLAG6-tagged pro-TGFalpha

## CC(C)C[C@H](CC(=O)NO)C(=O)N[C@H](C(=O)N[C@@H](C)C(=O)NCCN)C(C)(C)C [TAPI-2]
[1]; inhibitor 20 μM
  Generation and release of the higher molecular weight form of TGFalpha: none of these inhibitors of known proprotein convertases had an effect

## CCCCCCCCCC(=O)N[C@@H](CCCN=C(N)N)C(=O)N[C@H](C(=O)N[C@@H](CCCCN)C(=O)N[C@@H](CCCN=C(N)N)C(=O)CCl)C(C)C [furin inhibitor I] (Decanoyl-RVKR-CH2Cl)
[1]; inhibitor 100 μM
  Generation and release of the higher molecular weight form of TGFalpha: none of these inhibitors of known proprotein convertases had an effect

## CNC(=O)[C@H](Cc1ccccc1)NC(=O)[C@H](CC(C)C)[C@H](CSc1cccs1)C(=O)NO [BB94]
[2]; [7]
  Generation of the higher MW forms of TGFalpha by endogenous shedding: sensitivity to inhibitor: insensitive
  Trimming to smaller intermediates and species lacking the pro-peptide: blocked
[2]; bombesin-treated COS-7 cells overexpressing the bombesin receptor
  Processing of the 37 kDa form to the 6 kDa secreted bioactive ligand: sensitivity to inhibitor: sensitive
[1]; BB94 20 μM, PMA induction, HEK293T
  Release of the 6 kDa form of TGFalpha: inhibited
[3]; BB94 20 μM, bombesin treatment
  Bombesin-enhanced HB-EGF release: sensitivity to inhibitor: insensitivity
[3]; unstimulated cells, BB94
  HB-EGF shedding by ADAM proteases in unstimulated cells: sensitivity to inhibitor: sensitive
[4]; COS-7 cells, BB94 10 μM
  RHBDL4 cleavage of pro-TGFalpha: sensitivity to inhibitor: insensitive
[4]; HEK293T cells, TGFalpha with juxtamembrane His8-tag
  RHBDL4-triggered TGFalpha release: sensitivity to inhibitor: insensitive

## beta-secretase inhibitor IV
[1]; inhibitor 10 μM
  Generation and release of the higher molecular weight form of TGFalpha: none of these inhibitors of known proprotein convertases had an effect

## CC(C)C[C@@H](C=O)NC(=O)[C@H](CC(C)C)NC(=O)[C@H](CC(C)C)NC(=O)OCc1ccccc1 [MG132] (Cbz-Leu-Leu-Leu-aldehyde)
[5]
  Effect on pro-TGFalpha forms (proteasomal degradation): led to unglycosylated TGFalpha

## CCCCCCCCCCCCCC(=O)O[C@@H]1[C@@H](C)[C@@]2(O)[C@@H](C=C(CO)C[C@]3(O)C(=O)C(C)=C[C@@H]23)[C@@H]2C(C)(C)[C@]12OC(C)=O [PMA, phorbol 12-myristate 13-acetate]
[6]
  BB94-insensitive TGFalpha release activity: induced
  BB94-sensitive (metalloprotease dependent) trimming of TGFalpha: enhanced

From patent US20100173972A1, “METHODS AND USES RELATED TO RHBDL4” (MEDICAL RESEARCH COUNCIL, priority 2007, published 2010)
